As a reminder, the IC50 is the midpoint of a concentration-inhibition curve.

Consider 38 compounds from patent publication US20250257059A1, “PROTEIN TYROSINE PHOSPHATASE INHIBITORS AND USES THEREOF” (Nerio Therapeutics, Inc., priority 2022, published 2025).

Assay [1] deals with full-length human PTPN2 (TC45) (1-387) (Homo sapiens (Human), UniProt P17706). The assay is described as follows: Enzymatic assay used to determine potency of PTPN2 inhibitors (full length PTPN2 DiFMUP assay). The assay is classed as biochemical. To be noted: 0.5 nM PTPN2, 100 μM DiFMUP, 30 min at room temperature. The protocol: Compound activity was determined in an in vitro enzymatic assay using untagged, full-length human PTPN2 (TC45) (1-387) protein. PTPN2 was produced in E. coli as a GST-TEV fusion and the GST was removed by TEV digestion, followed by additional purification to yield full-length PTPN2 (SEQ ID 1). PTPN2 enzyme was diluted in assay buffer (50 mM HEPES pH7.5, 0.2 mM EDTA, 1 mM DTT, 0.02% Brij-35, 0.02% BSA) to a final concentration of 0.5 nM and added to black 384-well non-binding plates (Greiner, 781900). Compounds were subsequently added using a Tecan D300e dispenser. Following a 10 min incubation at room temperature, DiFMUP substrate (ThermoFisher, D22065) was added to a final concentration of 100 μM. Plates were transferred to a SpectraMax plate reader (Molecular Devices) and fluorescence intensity was measured (ex 358, em 455) after a 30 min incubation at room temperature. […] A four-parameter curve fit was used to determine IC50 values from % inhibition data.

Assay [2] has as its system murine B16F10 melanoma cell line. The assay can be described thus: B16F10 IFNγ-induced cellular growth inhibition assay (xCELLigence RTCA). The assay is classed as cell-based. Conditions: Mus musculus, B16-F10, 48 h, B16F10 cells, 1 ng/mL mouse IFNγ, AUC of growth curve, read-out: B16 IFNγ Mediated Growth Inhibition Assay: AVG IC50. The procedure: Compound activity was determined using an interferon gamma (IFNγ)-induced cellular growth inhibition assay with the murine B16F10 melanoma cell line on an Agilent xCELLigence Real-Time Cell Analysis platform (RTCA). RTCA E-Plate View 96 plates (Agilent, 300601010) were pre-equilibrated with 50 μL of assay media (DMEM+10% FBS, Gibco 10566-024, Gibco 10082-147) at 37° C. in a humidified incubator before taking an initial measurement of impedance (sweep). B16F10 cells cultured in assay media were dissociated with TrypLE Express (Gibco 12605-010) for five minutes at 37° C., diluted in 3 volumes of assay buffer, centrifuged for 5 minutes at 500×g at room temperature before diluting cells to 7,700 cells/mL in assay media, plating 130 μL/well (1,000 cells/well) in the inner 60 wells of the assay plate, and adding 150 μL of assay media to the outer wells of the plate. Cells were incubated at room temperature for 20 min to allow cells to settle before placing them in the xCELLigence reader and incubating overnight at 37° C., sweeping wells every 15 minutes. After 24 hours, well readings were paused, plates were removed from the incubator and compounds were added using a Tecan D300e dispenser. All wells were normalized to a final concentration of 0.5% DMSO. Following a 30 min incubation at 37° C., recombinant mouse IFNγ (R&D Systems™ 485MI100) was diluted to 10 ng/mL in assay media and 20 μL was added to assay wells (1 ng/mL final concentration). Assay plates were placed in the xCELLigence reader and swept every 15 minutes.

full-length human PTPN2 (TC45) (1-387), sequence (P17706 other isoform, or with tags, fused parts or gaps): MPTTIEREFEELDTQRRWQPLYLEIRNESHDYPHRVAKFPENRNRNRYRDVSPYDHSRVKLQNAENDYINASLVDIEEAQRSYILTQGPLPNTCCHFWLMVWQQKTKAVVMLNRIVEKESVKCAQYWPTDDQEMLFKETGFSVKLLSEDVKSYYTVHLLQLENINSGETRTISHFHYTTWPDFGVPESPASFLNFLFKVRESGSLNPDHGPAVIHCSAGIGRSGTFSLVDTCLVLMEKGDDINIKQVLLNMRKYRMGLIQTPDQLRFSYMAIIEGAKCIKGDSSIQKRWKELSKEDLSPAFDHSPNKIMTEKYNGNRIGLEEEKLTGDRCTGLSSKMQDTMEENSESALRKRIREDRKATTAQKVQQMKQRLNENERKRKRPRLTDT

In the case of `O=C1CN(c2c(O)cc(CC3CCCN(Cc4cnco4)C3)cc2F)S(=O)(=O)N1` (stereo not shown) [Example 48], the IC50 in assay [1] was 223 nM; in assay [2], greater than 33000 nM.

As for `CCCN1CCCC(Cc2cc(O)c(N3CC(=O)NS3(=O)=O)c(F)c2)C1` (stereo not shown) [Example 49], the IC50 in assay [1] is 96 nM; in assay [2], greater than 38000 nM.

For the compound `CC(C)CN1CCCC(Cc2cc(O)c(N3CC(=O)NS3(=O)=O)c(F)c2)C1` (stereo not shown) [Example 50], the IC50 in assay [1] is 91 nM; in assay [2] it was greater than 100000 nM.

For the compound `CCN1CCCC(Cc2cc(O)c(N3CC(=O)NS3(=O)=O)c(F)c2)C1` (stereo not shown) [Example 51], the IC50 in assay [1] came out at 63 nM; in assay [2] it was 27600 nM.

Take `O=C1CN(c2c(O)cc(CC3CCCN(Cc4ncc[nH]4)C3)cc2F)S(=O)(=O)N1` (stereo not shown) [Example 52]: the figures for the IC50 in assay [1] and in assay [2] were 44 nM and greater than 73000 nM, respectively.

Take `O=C1CN(c2c(O)cc(CC3CCCN(Cc4ccn[nH]4)C3)cc2F)S(=O)(=O)N1` (stereo not shown) [Example 53]: the IC50 is 35 nM in assay [1] and greater than 100000 nM in assay [2].

Take `O=C1CN(c2c(O)cc(CC3CCCNC3)cc2F)S(=O)(=O)N1` (stereo not shown) [Example 54]: the figures for the IC50 in assay [1] and in assay [2] were 75 nM and 25800 nM, respectively.

Regarding `CN1CCCCC(Cc2cc(O)c(N3CC(=O)NS3(=O)=O)c(F)c2)C1` (stereo not shown) [Example 56, 5-(2-fluoro-6-hydroxy-4-((1-methylazepan-3-yl)methyl)phenyl)-1,2,5-thiadiazolidin-3-one 1,1-dioxide], the figures for the 50% inhibitory concentration (IC50) in assay [1] and in assay [2] were 28 nM and greater than 45000 nM, respectively.

With `CN1CCCC(Cc2cc(O)c(N3CC(=O)NS3(=O)=O)c(F)c2)CC1` (stereo not shown) [Example 60], the IC50 in assay [1] was 24 nM; in assay [2], greater than 73000 nM.

As for `CN1CCC(CCc2cc(O)c(N3CC(=O)NS3(=O)=O)c(F)c2)C1` (stereo not shown) [Example 61, 5-(2-fluoro-6-hydroxy-4-(2-(1-methylpyrrolidin-3-yl)ethyl)phenyl)-1,2,5-thiadiazolidin-3-one 1,1-dioxide], the results for the IC50 in assay [1] and in assay [2] were 19 nM and greater than 41000 nM, respectively.

With `O=C1CN(c2c(O)cc(CCC3CCNC3)cc2F)S(=O)(=O)N1` (stereo not shown) [Example 62], the IC50 in assay [1] was 16 nM; in assay [2], greater than 100000 nM.

As to `CC(C)CN1CCC(CCc2cc(O)c(N3CC(=O)NS3(=O)=O)c(F)c2)C1` (stereo not shown) [Example 63], the IC50 in assay [1] is 75 nM; in assay [2], greater than 100000 nM.

Consider `CC(C)CCN1CCC(CCc2cc(O)c(N3CC(=O)NS3(=O)=O)c(F)c2)C1` (stereo not shown) [Example 64], for which the IC50 in assay [1] is 89 nM; in assay [2], greater than 100000 nM.

On to `O=C1CN(c2c(O)cc(CCC3CCCN3)cc2F)S(=O)(=O)N1` (stereo not shown) [Example 66], for which the figures for the IC50 in assay [1] and in assay [2] were 16 nM and 4270 nM, respectively.

On to `CC(C)CCN1CCCC1CCc1cc(O)c(N2CC(=O)NS2(=O)=O)c(F)c1` (stereo not shown) [Example 67], for which the IC50 is 36 nM in assay [1] and greater than 100000 nM in assay [2].

Take `CC(C)CN1CCCC1CCc1cc(O)c(N2CC(=O)NS2(=O)=O)c(F)c1` (stereo not shown) [Example 68]: the IC50 was 46 nM in assay [1] and greater than 100000 nM in assay [2].

As to `O=C1CN(c2c(O)cc(CC3CNC3)cc2F)S(=O)(=O)N1` [Example 69, 5-(4-(azetidin-3-ylmethyl)-2-fluoro-6-hydroxyphenyl)-1,2,5-thiadiazolidin-3-one 1,1-dioxide], the IC50 in assay [1] worked out at 15 nM; in assay [2], 13600 nM.

Take `CCCC1CCCN1Cc1cc(O)c(N2CC(=O)NS2(=O)=O)c(F)c1` (stereo not shown) [Example 70, 5-(2-fluoro-6-hydroxy-4-((2-propylpyrrolidin-1-yl)methyl)phenyl)-1,2,5-thiadiazolidin-3-one 1,1-dioxide]: the IC50 in assay [1] was 204 nM; in assay [2] it was greater than 45000 nM.

In the case of `CCCC1CCN(Cc2cc(O)c(N3CC(=O)NS3(=O)=O)c(F)c2)C1` (stereo not shown) [Example 71], the results for the IC50 in assay [1] and in assay [2] were 65 nM and 19300 nM, respectively.

Regarding `CC(C)CC1CCN(Cc2cc(O)c(N3CC(=O)NS3(=O)=O)c(F)c2)C1` (stereo not shown) [Example 72], the IC50 came out at 66 nM in assay [1] and 8440 nM in assay [2].

With `O=C1CN(c2c(O)cc(CN3CCCC3)cc2F)S(=O)(=O)N1` [Example 73], the IC50 turned out to be 92 nM in assay [1] and 8620 nM in assay [2].

`CN1CCCCC1Cc1ccc(O)c(N2CC(=O)NS2(=O)=O)c1F` (stereo not shown) [Example 74, 5-(2-fluoro-6-hydroxy-3-((1-methylpiperidin-2-yl)methyl)phenyl)-1,2,5-thiadiazolidin-3-one 1,1-dioxide]: the IC50 amounted to 161 nM in assay [1] and 9290 nM in assay [2].

On to `CC(C)CCN1CCCCC1Cc1ccc(O)c(N2CC(=O)NS2(=O)=O)c1F` (stereo not shown) [Example 76], for which the figures for the IC50 in assay [1] and in assay [2] were 6 nM and 8920 nM, respectively.

Consider `O=C1CN(c2c(O)ccc(CC3CCCCN3CCC(F)(F)F)c2F)S(=O)(=O)N1` (stereo not shown) [Example 77], for which the IC50 in assay [1] was 4 nM; in assay [2] it was greater than 100000 nM.

On to `O=C1CN(c2c(O)ccc(CC3CCCCN3CCc3ccccc3)c2F)S(=O)(=O)N1` (stereo not shown) [Example 78], for which the IC50 came to 13 nM in assay [1] and 11000 nM in assay [2].

For the compound `O=C1CN(c2c(O)cc(CCN3CCCC3)cc2F)S(=O)(=O)N1` [Example 83, 5-(2-fluoro-6-hydroxy-4-(2-(pyrrolidin-1-yl)ethyl)phenyl)-1,2,5-thiadiazolidin-3-one 1,1-dioxide], the IC50 in assay [1] was determined as 3 nM; in assay [2] it was 674 nM.

Regarding `CCC1CCCN1CCc1cc(O)c(N2CC(=O)NS2(=O)=O)c(F)c1` (stereo not shown) [Example 84, 5-(4-(2-(2-ethylpyrrolidin-1-yl)ethyl)-2-fluoro-6-hydroxyphenyl)-1,2,5-thiadiazolidin-3-one 1,1-dioxide], the IC50 in assay [1] was 13 nM; in assay [2], 13700 nM.

In the case of `CC(C)CC1CCN(CCc2cc(O)c(N3CC(=O)NS3(=O)=O)c(F)c2)C1` (stereo not shown) [Example 85], the IC50 in assay [1] was 2 nM; in assay [2], 331 nM.

As for `CCCC1CCN(CCc2cc(O)c(N3CC(=O)NS3(=O)=O)c(F)c2)C1` (stereo not shown) [Example 86], the IC50 in assay [1] was 4 nM; in assay [2], 651 nM.

`CCC1CCN(CCc2cc(O)c(N3CC(=O)NS3(=O)=O)c(F)c2)C1` (stereo not shown) [Example 87]: the IC50 in assay [1] worked out at 3 nM; in assay [2], 299 nM.

With `CC(C)CCC1CCN(CCc2cc(O)c(N3CC(=O)NS3(=O)=O)c(F)c2)C1` (stereo not shown) [Example 88], the results for the IC50 in assay [1] and in assay [2] were 3 nM and 1020 nM, respectively.

With `O=C1CN(c2c(O)cc(CCN3CCCCC3)cc2F)S(=O)(=O)N1` [Example 90], the IC50 came out at 2 nM in assay [1] and 1220 nM in assay [2].

Turning to `O=C1CN(c2c(O)cc(CCN3CCC(F)(F)C3)cc2F)S(=O)(=O)N1` [Example 91], the IC50 in assay [1] is 36 nM; in assay [2], greater than 24000 nM.

For `O=C1CN(c2c(O)cc(CCN3CCC(F)C3)cc2F)S(=O)(=O)N1` (stereo not shown) [Example 92], the IC50 in assay [1] came out at 3 nM; in assay [2], 504 nM.

As to `CC1(C)CCN(CCc2cc(O)c(N3CC(=O)NS3(=O)=O)c(F)c2)CC1` [Example 93], the IC50 in assay [1] was determined as 3 nM; in assay [2], 475 nM.

On to `O=C1CN(c2c(O)cc(CCN3CC[C@H](F)C3)cc2F)S(=O)(=O)N1` [Example 94], for which the IC50 in assay [1] was determined as 2 nM; in assay [2] it was 469 nM.

With `O=C1CN(c2c(O)cc(CCN3CC[C@@H](F)C3)cc2F)S(=O)(=O)N1` [Example 95], the IC50 in assay [1] was determined as 2 nM; in assay [2], 432 nM.

For `O=C1CN(c2c(O)cc(CCN3CCC(C(F)(F)F)C3)cc2F)S(=O)(=O)N1` (stereo not shown) [Example 96], the figures for the IC50 in assay [1] and in assay [2] were 2 nM and 680 nM, respectively.
